Results: US10111950B2, “Modified glycolipids and methods of making and using the same” (Vaccinex, Inc., priority 2013, dated 2018)

What was measured:
[1] = tested on: iNKT hybridoma DN3A4-1.2 with human CD1d transfected HeLa cells; assay: iNKT hybridoma stimulation (IL-2 secretion) with hCD1d expressing HeLa cells; format: cell-based; conditions: BPGC 5 to 0.01 μg/ml for 3 hrs, hybridoma 18 hours
Procedure: The activated natural killer cells were again calculated based on those secreting IL-2. Specifically, plate bound human CD1d transfected HeLa cells (10,000 cells in 100 μl medium) were plated in a 96 well tissue culture plate and allowed to adhere to the plates for 30 minutes at 37° C. Adherent HeLa cells were treated with varying BPGC concentrations ranging between 5 and 0.01 μg/ml in 100 μl for 3 hrs at 37° C. Glycolipid not taken up by cells was removed by washing with medium. To detect the BPGC presentation by CD1d, iNKT hybridoma DN3A4-1.2 (5000 cells in 100 μl volume) was added and the stimulation was detected by the level of IL-2 secreted in the supernatant following incubation at 37° C. for 18 hours.

[2] = target: T1, soluble recombinant mCD1d (Mus musculus, UniProt P11609); assay: Direct comparison of DB12-8 and 7DW8-5 complexes with soluble recombinant mCD1d, L363 ELISA; format: binding, murine
T1 construct: A soluble recombinant mCD1d protein (10 μg/ml) was loaded with glycolipids
T1 sequence (P11609 22-305 limits assumed): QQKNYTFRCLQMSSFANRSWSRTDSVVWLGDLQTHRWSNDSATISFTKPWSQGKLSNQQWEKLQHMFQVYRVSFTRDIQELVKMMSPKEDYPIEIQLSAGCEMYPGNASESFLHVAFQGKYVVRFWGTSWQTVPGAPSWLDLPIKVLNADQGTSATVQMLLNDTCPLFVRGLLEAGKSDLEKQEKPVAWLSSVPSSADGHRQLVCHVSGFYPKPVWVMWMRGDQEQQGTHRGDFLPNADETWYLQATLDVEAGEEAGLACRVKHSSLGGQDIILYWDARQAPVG
T1 sequence (P01887 21-119 partner): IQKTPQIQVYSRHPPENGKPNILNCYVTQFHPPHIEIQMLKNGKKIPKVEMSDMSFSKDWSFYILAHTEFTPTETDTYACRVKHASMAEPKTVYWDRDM
Procedure: (§1) The ligand binding affinity of plate bound mCD1d was measured by ELISA using mAb L363 to detect murine CD1d/αGalCer complexes. ELISA plates were coated with mCD1d (10 μg/ml, 30 μl/well) overnight at 4° C. in PBS pH 8.2. Supernatant was then removed along with any unbound protein. Glycolipids (5 μM, 30 μl/well) were loaded and allowed to incubate overnight at 25° C. Supernatant was again removed and the complexes were washed three times with PBS to remove any unbound glycolipid. For those complexes that underwent UV activation, UV crosslinking was performed in solution (30 μl/well PBS) and at a fixed wavelength of 365 nm from a UV lamp (RAD-FREE long wave UV lamp, Schleicher & Schuell). The UV lamp was placed one inch from the sample and the sample was allowed to sit on ice for 1 hr.
(§2) The ligand binding affinity of plate bound mCD1d was detected by iNKT DN3A4-1.2 hybridoma stimulation assay. mCD1d (10 μg/ml) was loaded with glycolipids (5 μM) overnight at 25° C. ELISA plates were coated with mCD1d:GC complexes (2.5 μg/ml, 30 μl/well) for 12-18 hours at 4° C. in PBS pH 8.2. Supernatant was then removed and the complexes were washed three times with PBS to remove any unbound glycolipid and protein. For those complexes that underwent UV activation, UV crosslinking was performed in solution (30 μl/well PBS) and at a fixed wavelength of 365 nm from a UV lamp (RAD-FREE long wave UV lamp, Schleicher & Schuell). The UV lamp was placed one inch from the sample and the sample was allowed to sit on ice for 1 hr. Supernatant was then removed and the complexes were washed three times with PBS to remove any unbound glycolipid and protein.
A soluble recombinant mCD1d protein (10 μg/ml) was loaded with glycolipids (5 μM) overnight at 25° C. in PBS pH8.2 with 0.05% tyloxapol. The mCD1d:GC complexes (10 μg/ml, 30 μl/well) were coated onto the high binding ELISA plates, overnight at 4° C. UV exposure and incubation to allow dissociation over 3 days was performed as described in Examples 6 and 7.

plate bound mCD1d = target: T2, plate bound mCD1d (Mus musculus, UniProt P11609); assay: Ligand binding to plate bound mCD1d with and without UV activation, ELISA using mAb L363; parameters: species or system murine; conditions: for dissociation of CD1d:glycolipid complex after 3 days (L363 ELISA): UV irradiated 365 nm 1 hr, 3 days in PBS+0.05% Triton X-100 at 25° C.; for CD1d/glycolipid complex formation detected by mAb L363 ELISA: plate bound mCD1d 10 μg/ml, glycolipid 5 μM
T2 construct: recombinant soluble murine CD1d (mCD1d) was diluted to 400 μg/ml in PBS pH 7.2
T2 sequence (P11609 22-305 limits assumed): T1 sequence (P11609 22-305 limits assumed)
T2 sequence (P01887 21-119 partner): T1 sequence (P01887 21-119 partner)
Procedure: as §1

[3] = tested on: iNKT hybridoma DN3A4-1.2 with plate bound mCD1d; assay: Plate bound mCD1d:glycolipid complexes with and without UV activation, iNKT DN3A4-1.2 hybridoma stimulation assay (IL-2 ELISA); format: cell-based, murine; conditions: for iNKT hybridoma stimulation following UV crosslinking (IL-2 ELISA): UV crosslinked 365 nm 1 hr; for iNKT stimulation post-dissociation (IL-2 ELISA): after 3 days dissociation, non-crosslinked mCD1d complexes (UV state not stated for 7DW8-5)
Procedure: as §2

mCD1d.CEA fusion protein = assay: Direct comparison of DB12-8 and 7DW8-5 complexes with mCD1d.CEA fusion protein, L363 ELISA; format: binding, murine
Procedure: as §1, §2
mCD1d.CEA (10 μg/ml), a recombinant mCD1d protein genetically fused with a single chain Fv antibody fragment specific for the tumor associated antigen CEA, was loaded with glycolipids (5 μM) overnight at 25° C. in PBS pH8.2 with 0.05% tyloxapol. The mCD1d.CEA:GC complexes (10 μg/ml, 30 μl/well) were coated onto wells of high binding ELISA 96 well plates overnight at 4° C. UV exposure and incubation to allow dissociation over 3 days were performed as described in Examples 6 and 7.
A scale up of the complex formation in solution was performed using a 10-fold increased concentration of protein and glycolipid and the results are shown in FIG. 9C-9D. mCD1d.CEA (100 μg/ml) was loaded with DB12-8 (50 μM respectively) overnight at 25° C. in PBS pH8.2 with 0.05% tyloxapol. DB12-8:mCD1d.CEA complexes were diluted down to 10 μg/ml and were coated onto the high binding ELISA plates (30 μl/well), overnight at 4° C. UV exposure and incubation to allow dissociation over 3 days were performed as described in Examples 6 and 7.

[4] = tested on: iNKT hybridoma DN3A4-1.2 with murine CD1d-expressing antigen presenting cells; assay: iNKT hybridoma stimulation (IL-2 secretion) with mCD1d expressing BMDCs; format: cell-based, mouse; conditions: BMDCs from C57BL/6 mice, BPGC 5 to 0.01 μg/ml for 3 hrs, hybridoma 18 hrs
Procedure: The activated natural killer cells were calculated based on those secreting IL-2. Specifically, bone marrow-derived dendritic cells (BMDCs) from C57BL/6 mice (10,000 cells in 100 μl culture medium) were plated in wells of a 96 well tissue culture plate and allowed to adhere to the plates for 30 minutes at 37° C. The cultures were then exposed to varying BPGC concentrations ranging between 5 and 0.01 μg/ml in 100 μl for 3 hrs at 37° C. Glycolipids not taken up by BMDCs were removed by washing with culture medium. To detect the BPGC presentation by CD1d, iNKT hybridoma DN3A4-1.2 (5000 cells in 100 μl volume) was added and the stimulation was detected by the level of IL-2 secreted in the supernatant following 18 hrs of incubation at 37° C.

mouse CD1d = target: T3, mouse CD1d (Mus musculus, UniProt P11609); assay: Tryptophan fluorescence quenching of mCD1d by glycolipid binding; conditions: protein 0.1 μM, glycolipid 4 μM, 25° C., excited at λ295
T3 construct: recombinant soluble murine CD1d (mCD1d) was diluted to 400 μg/ml in PBS pH 7.2
T3 sequence (P11609 22-305 limits assumed): T1 sequence (P11609 22-305 limits assumed)
T3 sequence (P01887 21-119 partner): T1 sequence (P01887 21-119 partner)
Procedure: The effect of glycolipid binding to mouse CD1d was tested. Fluorescence quenching of mCD1d due to glycolipid binding was measured using a Horibo Jobin Yvon Fluoromax-3 fluorescent spectrophotometer and the data were analyzed using FluorEssence software. Protein (0.1 μM) was mixed either with glycolipid antigens (at 4 μM) or the ligand vehicle in a quartz cuvette 1 cm wide, to a final volume of 100 μl and placed in the spectrometer already set at 25° C. The samples were excited at λ295 and emission measured from […] to λ400.

| dissociation after 3 days (L363 ELISA signal) ([2]; UV exposure at 365 nm) | affinity to CD1d, complex detected by L363 ELISA ([2]; mCD1d 10 μg/ml, glycolipid 5 μM) | dissociation after 3 days (L363 ELISA signal) ([2]; non UV-crosslinked state) | dissociation of CD1d:glycolipid complex after 3 days (L363 ELISA) (plate bound mCD1d) | fluorescence quenching of mCD1d due to glycolipid binding (mouse CD1d) | SMILES | iNKT stimulation, level of IL-2 secreted in the supernatant [1] | CD1d/glycolipid complex formation detected by mAb L363 ELISA (plate bound mCD1d) | iNKT hybridoma stimulation following UV crosslinking (IL-2 ELISA) [3] | iNKT stimulation post-dissociation (IL-2 ELISA) [3] | binding to CD1d ([3]; following UV crosslinking) | reduction in OD450 after 3 days (mCD1d.CEA fusion protein; 10-fold scale up (mCD1d.CEA 100 μg/ml, DB12-8 50 μM), UV-crosslinked samples) | decrease in OD450 after 3 days incubation (mCD1d.CEA fusion protein; 10-fold scale up (mCD1d.CEA 100 μg/ml, DB12-8 50 μM), non-crosslinked complexes) [%] | dissociation after 3 days (L363 ELISA signal) (mCD1d.CEA fusion protein; UV exposure at 365 nm) | affinity to CD1d, complex detected by L363 ELISA (mCD1d.CEA fusion protein; mCD1d.CEA 10 μg/ml, glycolipid 5 μM) | L363 ELISA signal following UV-crosslinking (mCD1d.CEA fusion protein; mCD1d.CEA complex) | dissociation after 3 days (L363 ELISA signal) (mCD1d.CEA fusion protein; non UV-crosslinked state) | iNKT stimulation, level of IL-2 secreted in the supernatant [4] |
| --- | --- | --- | --- | --- | --- | --- | --- | --- | --- | --- | --- | --- | --- | --- | --- | --- | --- |
| no dissociation was observed | showed affinity to CD1d | dissociated almost completely | no significant dissociation | – | CCCCCCCCCCCCCC[C@@H](O)[C@@H](O)[C@H](COC1OC(CO)C(O)C(O)C1O)NC(=O)CCCCCCCCCCOCc1cccc(C(=O)c2ccccc2)c1 (stereo partly drawn) [DB12-8] | stimulatory toward iNKT cells | highest levels of immunoreactive complex formation | stimulated iNKT hybridoma better than other glycolipids | some, albeit reduced, iNKT stimulation even after dissociation | bound efficiently to CD1d | no detectable reduction in OD450 | ~75 | no dissociation was observed | showed affinity to CD1d | increases significantly | almost completely dissociated | – |
| – | – | – | no significant dissociation | – | CCCCCCCCCCCCCC[C@@H](O)[C@@H](O)[C@H](COC1OC(CO)C(O)C(O)C1O)NC(=O)CCCCCCCCCCCOCc1cccc(C(=O)c2ccccc2)c1 (stereo partly drawn) [DB12-9] | – | highest levels of immunoreactive complex formation | – | some, albeit reduced, iNKT stimulation even after dissociation | – | – | – | – | – | – | – | – |
| – | – | – | – | greatest quenching | CCCCCCCCCCCCCC[C@@H](O)[C@@H](O)[C@H](COC1OC(CO)C(O)C(O)C1O)NC(=O)CCCCCCCCOCc1cccc(C(=O)c2ccccc2)c1 (stereo partly drawn) [DB12-7] | – | – | – | some, albeit reduced, iNKT stimulation even after dissociation | – | – | – | – | – | – | – | lower but still significant IL-2 secretion |
| – | – | – | no significant dissociation | – | CCCCCCCCCCCCCC[C@@H](O)[C@@H](O)[C@H](COC1OC(CO)C(O)C(O)C1O)NC(=O)CCCCCCCCCOCc1cccc(C(=O)c2ccccc2)c1 (stereo partly drawn) [DB11-2] | stimulatory toward iNKT cells | highest levels of immunoreactive complex formation | second best stimulator | some, albeit reduced, iNKT stimulation even after dissociation | – | – | – | – | – | – | – | stimulated iNKTs most efficiently at a low concentration of 0.1 μg/ml |
